Results reported in ChEMBL document CHEMBL3414534, “Water-soluble isoindolo[2,1-a]quinoxalin-6-imines: in vitro antiproliferative activity and molecular mechanism(s) of action” (Eur J Med Chem, 2015).
Values after ≈ are worked out from the molar mass of the structure shown. Values joined by “and” are separate entries in the source; they are usually repeats but may differ in a detail not shown here. Equal entries are not always repeated. Active and inactive are the calls of the source. The calls are words filed in the database; no cut-off is given here.

Assays:
[1] = Solubility in water at 25 degC sonicated for 10 mins by HPLC method; type: physicochemical
[2] = Growth inhibition of human NCI60 cells; type: functional
[3] = target: T1, DNA topoisomerase 1 (Homo sapiens) (UniProt P11387); experiment: Inhibition of human recombinant topoisomerase 1-dependent DNA cleavage using 751-bp BamHI-EcoRI fragment of SV40 DNA at 1 to 50 uM incubated for 30 mins by PAGE method
T1 sequence (whole entry): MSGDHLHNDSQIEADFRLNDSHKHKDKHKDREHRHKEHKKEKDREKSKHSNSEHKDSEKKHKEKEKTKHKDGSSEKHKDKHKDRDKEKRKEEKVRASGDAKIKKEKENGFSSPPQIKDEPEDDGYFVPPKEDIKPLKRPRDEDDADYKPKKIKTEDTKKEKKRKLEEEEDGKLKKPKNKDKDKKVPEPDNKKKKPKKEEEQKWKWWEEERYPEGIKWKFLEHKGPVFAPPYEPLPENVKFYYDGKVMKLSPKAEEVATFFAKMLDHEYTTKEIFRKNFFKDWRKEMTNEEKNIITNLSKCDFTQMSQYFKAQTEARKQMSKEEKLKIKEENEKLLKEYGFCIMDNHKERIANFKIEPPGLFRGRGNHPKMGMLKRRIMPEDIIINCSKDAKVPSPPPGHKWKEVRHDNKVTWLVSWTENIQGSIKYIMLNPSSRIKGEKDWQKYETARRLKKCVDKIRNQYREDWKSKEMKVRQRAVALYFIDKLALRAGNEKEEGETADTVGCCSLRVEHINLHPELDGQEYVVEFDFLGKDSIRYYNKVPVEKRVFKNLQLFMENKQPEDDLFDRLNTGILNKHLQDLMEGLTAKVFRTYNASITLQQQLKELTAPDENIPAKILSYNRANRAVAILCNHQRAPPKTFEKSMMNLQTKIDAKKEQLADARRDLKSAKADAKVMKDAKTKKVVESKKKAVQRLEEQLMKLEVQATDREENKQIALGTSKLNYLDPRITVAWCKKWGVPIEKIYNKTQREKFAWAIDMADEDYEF

Homo sapiens [4] = species: Homo sapiens; experiment: Binding affinity to human telomeric DNA sequence assessed as change in melting temperature at 5 uM at pH 7.4 by fluorescence melting assay
[5] = Binding affinity to double stranded DNA (unknown origin) assessed as change in melting temperature at 5 uM at pH 7.4 by fluorescence melting assay
[6] = Binding affinity to Pu24 DNA (unknown origin) assessed as change in melting temperature at 5 uM at pH 7.4 by fluorescence melting assay
Homo sapiens [7] = species: Homo sapiens; experiment: Binding affinity to human telomeric DNA sequence Tel22 assessed as induction of modification of dichroic signal at 0 to 16 uM at pH 7.4 by CD spectroscopy
Calf thymus DNA = experiment: Binding affinity to calf thymus double stranded DNA assessed as induction of modification of dichroic signal by CD spectroscopy; type: nucleic-acid assay; details: Bos taurus
U2OS [8] = experiment: Induction of telomere architecture perturbations in human U2OS cells assessed as displacement of hPOT1 from telomeres at cytotoxic IC50 level after 24 hrs by chromatin immunoprecipitation method; type: functional
U2OS [9] = experiment: Growth inhibition of human U2OS cells after 72 hrs by coulter counter method; type: functional, cell-based
U2OS [10] = experiment: Induction of cell cycle arrest in human U2OS cells assessed as accumulation at G2/M phase at cytotoxic IC50 level by propidium iodide staining based based cytofluorimetry; type: functional; details: TDE = time-dependent effect
U2OS [11] = experiment: Induction of cell cycle arrest in human U2OS cells assessed as increase in accumulation at subG1 phase at cytotoxic IC50 level by propidium iodide staining based based cytofluorimetry; type: functional; details: TDE = time-dependent effect
Tubulin (Homo sapiens) [12] = target: T2, Tubulin (Homo sapiens) (UniProt P68371+Q9H4B7+P0DPH7+P68366+Q13509+Q71U36+P04350+Q3ZCM7+P07437+P68363+Q9BQE3+Q6PEY2+Q13885+Q9BVA1+Q9BUF5); experiment: Inhibition of tubulin polymerization in human U2OS cells at cytotoxic IC50 level after 72 hrs by Western blotting method; type: cell-based
[13] = target: Cyclin-dependent kinase 1 (Homo sapiens, UniProt P06493); experiment: Inhibition of CDC2 kinase (unknown origin) using histone H1 and [32P]-ATP
Cyclin-dependent kinase 1, sequence (P06493 whole entry): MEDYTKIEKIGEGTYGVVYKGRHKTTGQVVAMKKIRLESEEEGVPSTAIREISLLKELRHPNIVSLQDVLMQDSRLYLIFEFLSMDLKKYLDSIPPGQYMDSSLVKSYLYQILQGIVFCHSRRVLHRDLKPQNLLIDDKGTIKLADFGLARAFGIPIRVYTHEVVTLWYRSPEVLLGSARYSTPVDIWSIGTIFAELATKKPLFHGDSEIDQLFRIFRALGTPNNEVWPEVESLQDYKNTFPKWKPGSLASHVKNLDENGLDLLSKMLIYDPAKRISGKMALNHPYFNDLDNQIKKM

[14] = Inhibition of purified recombinant glutathione-S-transferase tagged cdc25 phosphatase (unknown origin) assessed as reduction in p-nitrophenylphosphate phosphatase activity by colorimetry; design: species or system Homo sapiens
U2OS [15] = experiment: Induction of telomere architecture perturbations in human U2OS cells assessed as displacement of hPOT1 from telomeres at cytotoxic IC50 level after 12 hrs by chromatin immunoprecipitation method; type: functional
U2OS [16] = experiment: Induction of telomere architecture perturbations in human U2OS cells assessed as displacement of TRF2 from telomeres at cytotoxic IC50 level after 24 hrs by chromatin immunoprecipitation method; type: functional
U2OS [17] = experiment: Induction of telomere architecture perturbations in human U2OS cells assessed as increase in DNA topoisomerase 1 binding to telomeric sequences at cytotoxic IC50 level after 12 hrs by chromatin immunoprecipitation method; type: functional
U2OS [18] = experiment: Induction of telomere architecture perturbations in human U2OS cells assessed as displacement of human DNA topoisomerase 1 from telomeres at cytotoxic IC50 level after 24 hrs by chromatin immunoprecipitation method; type: functional
U2OS [19] = experiment: Induction of apoptosis in human U2OS cells assessed as increase in caspase-3 catalytic activity at cytotoxic IC50 level after 72 hrs; type: functional
U2OS [20] = experiment: Induction of telomere architecture perturbations in human U2OS cells assessed as increase in DNA topoisomerase 1 binding to telomeric sequences at cytotoxic IC50 level after 6 hrs by chromatin immunoprecipitation method; type: functional
U2OS [21] = experiment: Induction of telomere architecture perturbations in human U2OS cells assessed as displacement of hPOT1 from telomeres at cytotoxic IC50 level after 72 hrs by chromatin immunoprecipitation method; type: functional, cell-based
[22] = target: T1, DNA topoisomerase 1 (Homo sapiens); details: 50 uM
Description: Inhibition of human recombinant topoisomerase 1-dependent DNA cleavage using 751-bp BamHI-EcoRI fragment of SV40 DNA at 50 uM incubated for 30 mins by PAGE method

Tubulin (Homo sapiens) [23] = target: T2, Tubulin (Homo sapiens); experiment: Induction of tubulin polymerization in human U2OS cells at cytotoxic IC50 level after 72 hrs by Western blotting method; type: cell-based

SMILES | solubility at 10 min [1] | ΔTm (Homo sapiens [4]) | ΔTm [5] | ΔTm [6] | GI50 ([2]; Homo sapiens, NCI60) | also measured
COc1ccc2c(c1)[nH]c(=O)c1c3ccccc3cn21 | 3.4 mM (≈ 899 µg/mL) |  |  |  |  | 
CC(=O)O.N=c1[nH]c2cc(O)ccc2n2cc3c(F)cccc3c12 | 12.7 mM |  |  |  |  | GI50 [2]: 6.31 µM
O=C(Cn1c2ccc(Br)cc2c2nc3ccccc3nc21)NNC(=S)NC1CCCCC1 |  |  |  |  |  | IC50 [13]: 70 µM; IC50 [14]: 25 µM
COc1ccc(OC)c2c1[nH]c(=N)c1c3ccccc3cn21 | 12.7 mM (≈ 3730 µg/mL) | 4.3 °C and 4.4 °C | 0.3 °C and 0.7 °C | 2.6 °C and 2.2 °C | 2.29 µM | 
N=c1[nH]c2cc(Cl)c(Cl)cc2n2cc3ccccc3c12 |  | 0.3 °C | 0 °C | 1.1 °C |  | 
CC(=O)O.COc1cc2cn3c4ccc(O)cc4[nH]c(=N)c3c2cc1OC | 14 mM |  |  |  |  | Activity (U2OS [15]): -63%; Activity (U2OS [8]): -31%; Activity (U2OS [16]): -66%; Activity (U2OS [17]): 77%; inhibition (INH) (U2OS [18]): 57%; GI50 [2]: < 3.31 µM; fold change (FC) (U2OS [19]): 17
COc1ccc2[nH]c(=N)c3c4ccccc4cn3c2c1 | 13.8 mM (≈ 3630 µg/mL) | 1.5 °C and 2 °C | 0.1 °C and 0 °C | 1.1 °C and 2.3 °C | 1.55 µM | 
CCc1c2c(nc3ccc(O)cc13)-c1cc3c(c(=O)n1C2)COC(=O)[C@]3(O)CC |  |  |  |  |  | inhibition [22]: Active
N=c1[nH]c2ccccc2n2cc3ccccc3c12 |  | 1.1 °C | 0.3 °C | 1.5 °C |  | 
COc1ccc2c(c1)[nH]c(=N)c1c3cc(OC)c(OC)cc3cn21 [listing 1 of 2 here] | 14.4 mM (≈ 4660 µg/mL) |  |  |  | > 15.5 µM | 
Cc1cc2[nH]c(=N)c3c4ccccc4cn3c2cc1C |  | 3.1 °C | 0.3 °C | 1.9 °C |  | 
CC(=O)O.COc1ccc2c(c1)[nH]c(=N)c1c3cc(OC)c(OC)cc3cn21 | 7.2 mM |  |  |  |  | GI50 [2]: < 9.55 µM
COc1ccc2c(c1)[nH]c(=N)c1c3cc(OC)c(OC)cc3cn21 [listing 2 of 2 here] |  | 5 °C and 3.1 °C | 0 °C and 0.1 °C | 4.1 °C and 2.4 °C |  | 
N=c1[nH]c2cc(O)ccc2n2cc3c(F)cccc3c12 [listing 1 of 2 here] | 23 mM (≈ 6150 µg/mL) |  |  |  |  | GI50 [2]: 31.6 µM
N=c1[nH]c2cc(O)ccc2n2cc3c(F)cccc3c12 [listing 2 of 2 here] |  | 1 °C and 0.8 °C | 0 °C | 2 °C and 1 °C |  | inhibition of DNA cleavage (qualitative) [3]: Dose-dependent effect
CCC1=C[C@@H]2CN(C1)Cc1c([nH]c3ccccc13)[C@@](C(=O)OC)(c1cc3c(cc1OC)N(C)[C@H]1[C@@](O)(C(=O)OC)[C@H](OC(C)=O)[C@]4(CC)C=CCN5CC[C@]31[C@@H]54)C2 |  |  |  |  |  | Activity (U2OS [19]): Active; tubulin polymerization inhibition (active/inactive) (Tubulin (Homo sapiens) [12]): Active
CC(=O)O.Cc1cc2cn3c4ccc(O)cc4[nH]c(=N)c3c2cc1C | 9.8 mM |  |  |  |  | GI50 [2]: < 5.25 µM
Cc1cccc2c1[nH]c(=N)c1c3ccccc3cn21 |  | 1.8 °C | 0.2 °C | 1.5 °C |  | 
CC(=O)O[C@H]1C(=O)[C@@]2(C)[C@H]([C@H](OC(=O)c3ccccc3)[C@]3(O)C[C@H](OC(=O)[C@H](O)[C@@H](NC(=O)c4ccccc4)c4ccccc4)C(C)=C1C3(C)C)[C@]1(OC(C)=O)CO[C@@H]1C[C@@H]2O |  |  |  |  |  | Activity (U2OS [19]): Active; Activity (Tubulin (Homo sapiens) [23]): Active

Further lines, with some results ahead:

solubility at 10 min [1] | ΔTm (Homo sapiens [4]) | ΔTm [5] | ΔTm [6] | SMILES | GI50 ([2]; Homo sapiens, NCI60) | also measured
14.1 mM (≈ 3910 µg/mL) |  |  |  | Cc1cc2cn3c4ccc(O)cc4[nH]c(=N)c3c2cc1C [listing 1 of 2 here] |  | GI50 [2]: < 1.45 µM
 | 5.9 °C and 6.2 °C | 0.3 °C and 0.2 °C | 3.4 °C and 2.4 °C | COc1cc2cn3c4ccc(O)cc4[nH]c(=N)c3c2cc1OC [listing 1 of 2 here] |  | inhibition of DNA cleavage (qualitative) [3]: Active; Activity (Homo sapiens [7]): Active; Activity (Calf thymus DNA): Active; Activity (U2OS [8]): inactive; growth inhibition (GI) (U2OS [9]): Active; Activity (U2OS [10]): tde; Activity (U2OS [11]): tde; tubulin polymerization inhibition (active/inactive) (Tubulin (Homo sapiens) [12]): Active
 | 3.6 °C and 2.5 °C | 0.2 °C and 0.1 °C | 1.9 °C and 1.1 °C | Cc1cc2cn3c4ccc(O)cc4[nH]c(=N)c3c2cc1C [listing 2 of 2 here] |  | 
22.4 mM (≈ 6260 µg/mL) | 1.9 °C | 0.2 °C | 0.2 °C | COc1ccc2cn3c4ccc(O)cc4[nH]c(=N)c3c2c1 | 12.3 µM | 
13.2 mM (≈ 3870 µg/mL) |  |  |  | COc1ccc2c(c1)[nH]c(=N)c1c3cc(OC)ccc3cn21 | < 1.05 µM | 
24.5 mM (≈ 7580 µg/mL) |  |  |  | COc1cc2cn3c4ccc(O)cc4[nH]c(=N)c3c2cc1OC [listing 2 of 2 here] | < 3.24 µM | Activity (U2OS [15]): -88%; Activity (U2OS [16]): -80%; Activity (U2OS [20]): 64%; Activity (U2OS [17]): 309%; inhibition (INH) (U2OS [18]): 57%; fold change (FC) (U2OS [19]): 23
13 mM (≈ 3810 µg/mL) | 1.2 °C | 0 °C | 1.1 °C | COc1ccc2c(c1)cn1c3ccc(OC)cc3[nH]c(=N)c21 | < 1.2 µM | inhibition of DNA cleavage (qualitative) [3]: Dose-dependent effect; Activity (Calf thymus DNA): inactive; Activity (U2OS [21]): inactive; Activity (U2OS [16]): -67%; inhibition (INH) (U2OS [18]): 57%; growth inhibition (GI) (U2OS [9]): Active; Activity (U2OS [10]): tde; Activity (U2OS [11]): tde; fold change (FC) (U2OS [19]): 13; tubulin polymerization inhibition (active/inactive) (Tubulin (Homo sapiens) [12]): Active
21.9 mM (≈ 6120 µg/mL) |  |  |  | COc1ccc2c(c1)cn1c3ccc(O)cc3[nH]c(=N)c21 [listing 1 of 2 here] | 11 µM | 
14.4 mM (≈ 4050 µg/mL) | 1.8 °C | 0.2 °C | 2.1 °C | COc1ccc2c(c1)[nH]c(=N)c1c3cccc(F)c3cn21 | 10.7 µM | 
 | 1.4 °C | 0.2 °C | 2 °C | COc1ccc2c(c1)[nH]c(=N)c1c3ccccc3cn21 |  | 
 | 4.4 °C and 4.3 °C | 0.1 °C and 0.7 °C | 1.9 °C and 2.9 °C | COc1ccc2c(c1)cn1c3ccc(O)cc3[nH]c(=N)c21 [listing 2 of 2 here] |  | 
10.9 mM |  |  |  | CC(=O)O.COc1ccc2c(c1)cn1c3ccc(O)cc3[nH]c(=N)c21 |  | GI50 [2]: < 8.32 µM
7.8 mM (≈ 2270 µg/mL) | 2.6 °C and 1.4 °C | 0.1 °C and 0 °C | 2.1 °C | COc1ccc2c(c1)[nH]c(=N)c1c3cc(C)c(C)cc3cn21 | < 3.8 µM | 
